In the CheMixHub ionic liquid set:

Assay: xn = mol fraction of the nth substance listed
Details: for electrical conductivity: 300 K

CCCCCCCCCCCCCCCC[P+](CCCC)(CCCC)CCCC.[Br-] + O
101 kPa
Details	electrical conductivity [S/m]
x2 = 0.201	0.00035
x2 = 0.302	0.00035
x2 = 0.402	0.00035
x2 = 0.502	0.00035

CC1=CCC(C(C)C)=CC1 + CCCCCCCC[N+](CCCCCCCC)(CCCCCCCC)CCCCCCCC.[Br-] + [Cl-].[Cl-].[Co+2]
Details	viscosity [mPa·s]
296.1 K, 101.3 kPa, x2 = 0.4, x3 = 0.2	120000

CCCC[N+](CCCC)(CCCC)CCCC.[Br-] + CCCCCCCCCCCCOS(=O)(=O)[O-].[Na+] + O
viscosity [mPa·s], 100 kPa
Details	x2 = 1.81e-06, x1 = 0.0001802	x2 = 3.61e-06, x1 = 0.0001802	x2 = 5.42e-06, x1 = 0.0001802	x2 = 7.23e-06, x1 = 0.0001802	x2 = 9.04e-06, x1 = 0.0001802	x2 = 1.084e-05, x1 = 0.0001802	x2 = 1.265e-05, x1 = 0.0001802	x2 = 1.446e-05, x1 = 0.0001802	x2 = 1.627e-05, x1 = 0.0001802	x2 = 1.807e-05, x1 = 0.0001802
293.15 K	1.023	1.024	1.026	1.027	1.028	1.029	1.029	1.03	1.03	1.03
298.15 K	0.916	0.919	0.92	0.921	0.922	0.922	0.923	0.924	0.924	0.925
303.15 K	0.8	0.801	0.802	0.802	0.803	0.803	0.803	0.803	0.804	0.804
308.15 K	0.72	0.721	0.722	0.723	0.724	0.724	0.724	0.725	0.725	0.725
313.15 K	0.654	0.655	0.656	0.657	0.657	0.657	0.657	0.657	0.657	0.658
318.15 K	0.6	0.601	0.601	0.601	0.602	0.602	0.602	0.602	0.602	0.603

NCC(O)CN + CC[n+]1ccn(C)c1.[Cl-]
101 kPa, x2 = 0.667
Details	viscosity [mPa·s]
298.15 K	280
303.15 K	200.3
313.15 K	108.2
323.15 K	58.3
333.15 K	38.3

CCCC[n+]1ccn(C)c1.COS(=O)(=O)[O-] + CCCC[n+]1ccn(C)c1.F[B-](F)(F)F
101 kPa
Details	viscosity [mPa·s]
298.15 K, x2 = 0.4358	161.7
298.15 K, x2 = 0.5118	158.9
298.15 K, x2 = 0.6026	146.2
298.15 K, x2 = 0.9447	110.8
299.15 K, x2 = 0	202.9
299.15 K, x2 = 0.1209	181.8
301.15 K, x2 = 0.1209	162.8
301.15 K, x2 = 0.2142	158.7
301.15 K, x2 = 0.4358	136.4
301.15 K, x2 = 0.6934	117
301.15 K, x2 = 0.7813	109.5
302.15 K, x2 = 0	171.4
302.15 K, x2 = 0.3057	144.1
302.15 K, x2 = 0.5412	122.2
302.15 K, x2 = 0.6026	117.5
302.15 K, x2 = 0.648	113.8
303.15 K, x2 = 0.406	127.9
303.15 K, x2 = 0.5118	118.6
304.15 K, x2 = 0.3057	129.6
304.15 K, x2 = 0.5412	109.7
304.15 K, x2 = 0.6934	99.9
305.15 K, x2 = 0.1209	131.1
305.15 K, x2 = 0.2142	127.8
305.15 K, x2 = 0.6026	100.3
305.15 K, x2 = 0.9005	82.8
305.15 K, x2 = 0.9447	78.2
307.15 K, x2 = 0.4358	99.4
307.15 K, x2 = 0.6026	90.9
308.15 K, x2 = 0.1209	112.4
308.15 K, x2 = 0.406	98.7
308.15 K, x2 = 0.9447	68
